From PubChem BioAssay AID2060889 (Molecular Pharmacology Branch, DTP, NCI, 2025)
Several values for one entry are separate records, joined by “and”; a condition that tells them apart may be missing. Identical values can stand only once.

Tested on: LG0567-F671-PDC complex spheroids viability
Assay: Anticancer human tumor LG0567-F671-PDC patient-derived lung adenocarcinoma cell line growth inhibition [RAS]
Details: for viability, T/C: stronger effect = lower value; active = viability on the fitted dose curve at most 10% of control; inactive = the rest
Procedure, shortened: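 Tumour cells grown as complex spheroids with HUVEC endothelial cells and mesenchymal stem cells, treated with RAS pathway inhibitor combinations. Each agent spans half-log steps from near clinical Cmax, or 10 microM where Cmax is unknown.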
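Also: spheroids exposed to compound for seven days before readout.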
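For IC50 in this document: luminescence signal used as a proxy for viable cells.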

CC(Nc1ccc2c(c1)OCCn1cc(N3C(=O)OCC3C(F)F)nc1-2)C(N)=O (centres undefined)
inactive: viability, T/C (compound 0.0316 µM) 79.5% [middle of 4 runs] | viability, T/C (compound 0.1 µM) 63.3% [middle of 4 runs] | viability, T/C (compound 0.316 µM) 52.5% [middle of 4 runs] | viability, T/C (compound 1 µM) 43.4% [middle of 4 runs] | viability, T/C (compound 3.16 µM) 33.8% (2×) and 32.1% and 37.8% | viability, T/C (compound 10 µM) 30.5% [middle of 4 runs]
386 nM [middle of 4 runs]: IC50 (curve of compound)

NC1c2ccccc2OC12CCN(c1cnc3c(N4CCCc5ncccc54)n[nH]c3n1)CC2 (centres undefined) + CCn1c(-c2cc(N3CCN(C)CC3)cnc2C(C)OC)c2c3cc(ccc31)-c1csc(n1)CC(NC(=O)C1CC1C)C(=O)N1CCCC(N1)C(=O)OCC(C)(C)C2
active: viability, T/C (second compound 0.000949 µM, first compound 0.0316 µM) 6.06% | viability, T/C (second compound 0.000949 µM, first compound 0.1 µM) 4.3% | viability, T/C (second compound 0.000949 µM, first compound 0.316 µM) 2.12% | viability, T/C (second compound 0.000949 µM, first compound 1 µM) 1.95% | viability, T/C (second compound 0.000949 µM, first compound 3.16 µM) 1.97% | viability, T/C (second compound 0.000949 µM, first compound 10 µM) 1.51% | viability, T/C (second compound 0.003 µM, first compound 0.0316 µM) 3.74% | viability, T/C (second compound 0.003 µM, first compound 0.1 µM) 2.3% | viability, T/C (second compound 0.003 µM, first compound 0.316 µM) 1.62% | viability, T/C (second compound 0.003 µM, first compound 1 µM) 1.58% | viability, T/C (second compound 0.003 µM, first compound 3.16 µM) 1.33% | viability, T/C (second compound 0.003 µM, first compound 10 µM) 1.84% | viability, T/C (second compound 0.00949 µM, first compound 0.0316 µM) 2.32% | viability, T/C (second compound 0.00949 µM, first compound 0.1 µM) 1.6% | viability, T/C (second compound 0.00949 µM, first compound 0.316 µM) 1.26% | viability, T/C (second compound 0.00949 µM, first compound 1 µM) 0.84% | viability, T/C (second compound 0.00949 µM, first compound 3.16 µM) 1.05% | viability, T/C (second compound 0.00949 µM, first compound 10 µM) 1.1% | viability, T/C (second compound 0.03 µM, first compound 0.0316 µM) 1.64% | viability, T/C (second compound 0.03 µM, first compound 0.1 µM) 1.27% | viability, T/C (second compound 0.03 µM, first compound 0.316 µM) 1.19% | viability, T/C (second compound 0.03 µM, first compound 1 µM) 0.92% | viability, T/C (second compound 0.03 µM, first compound 3.16 µM) 1.02% | viability, T/C (second compound 0.03 µM, first compound 10 µM) 0.81% | viability, T/C (second compound 0.0949 µM, first compound 0.0316 µM) 1.33% | viability, T/C (second compound 0.0949 µM, first compound 0.1 µM) 1.55% | viability, T/C (second compound 0.0949 µM, first compound 0.316 µM) 0.92% | viability, T/C (second compound 0.0949 µM, first compound 1 µM) 0.69% | viability, T/C (second compound 0.0949 µM, first compound 3.16 µM) 0.98% | viability, T/C (second compound 0.0949 µM, first compound 10 µM) 0.76% | viability, T/C (second compound 0.3 µM, first compound 0.0316 µM) 1.37% | viability, T/C (second compound 0.3 µM, first compound 0.1 µM) 1.39% | viability, T/C (second compound 0.3 µM, first compound 0.316 µM) 0.9% | viability, T/C (second compound 0.3 µM, first compound 1 µM) 0.72% | viability, T/C (second compound 0.3 µM, first compound 3.16 µM) 0.85% | viability, T/C (second compound 0.3 µM, first compound 10 µM) 0.72%
< 31.6 nM: IC50 (curve of first compound, second compound 0.000949 µM) | IC50 (curve of first compound, second compound 0.003 µM) | IC50 (curve of first compound, second compound 0.00949 µM) | IC50 (curve of first compound, second compound 0.03 µM) | IC50 (curve of first compound, second compound 0.0949 µM) | IC50 (curve of first compound, second compound 0.3 µM)
